Measurements from patent US6858631B1, “Polymorphic, amorphous and hydrated forms of 5-chloro-3-(4-methanesulfonylphenyl)-6′-methyl-[2,3′]bipyridinyl” (Merck & Co., Inc., priority 1999, dated 2005).

What was measured:
[1] = Relative solubility of polymorphic forms; assay type: physicochemical; conditions: at temperatures below 45° C.
Experimental: (§1) Forms I and IV are enantiotropic with Form IV converting to Form I at temperatures greater than 45° C. when in contact with organic solvents.

[2] = Relative thermodynamic stability and interconversion of polymorphic forms; assay type: physicochemical
Experimental: as §1

Cc1ccc(-c2ncc(Cl)cc2-c2ccc(S(C)(=O)=O)cc2)cn1 [Form IV, 5-chloro-3-(4-methanesulfonylphenyl)-6′-methyl-[2,3′]bipyridinyl]
solubility relative to Form I [1]: slightly less soluble
stability relative to Form I ([2]; at temperatures below 45° C.): slightly more stable
temperature at which Form IV converts to Form I (enantiotropic) ([2]; in contact with organic solvents): greater than 45 °C
